From US6841366B1, “Biotin biosynthesis in bacillus subtilis” (DSM IP Assets B.V., priority 1993, dated 2005)

What was measured:
[1] = test system: SPβ::bioW-lacZ; assay: SPβ-borne single-copy bioW-lacZ translational fusion, β-galactosidase assay; format: cell-based, B. subtilis
Description: Other strains, in addition to the lacZ fusion strain of Example IVA, can be constructed for deciphering biotin regulatory mechanisms. For example, Applicants recognized that insertion of the plasmid-borne bioW-lacZ fusion into the chromosome causes technical problems because the integrated plasmid amplifies in copy number. Thus the expression of the bioW-lacZ fusion at single copy-number and at a site distinct from the bio operon was tested by introducing the fusion into a modified SPβ specialized transducing phage (see, e.g., Zuber et al., J. Bacteriol. 169:2223-2230, 1987, hereby incorporated by reference).
Two isolates of PY79 (SPβ::bioW-lacZ) and BI421 (SPβ::bioW-lacZ) were assayed for β-galactosidase activity as described above.
Biotin regulation was also examined in two independently isolated biotin analog-resistant mutants. HB3 contains a spontaneous birA mutation and α-DB9 contains an α-dehydrobiotin resistant mutation unlinked to either bio or birA. These strains were transduced, grown, and assayed as described above, except that α-DB9 (SPβ::bioW-lacZ) was assayed during mid-exponential growth.

[2] = test system: B. subtilis PY79 and azelaic acid resistant mutants; assay: Growth inhibition by azelaic acid, minimal agar; format: cell-based; details: addition of 1 μg/l biotin
Description: Azelaic acid, a straight chain C9 dicarboxylic acid, is a homolog of pimelic acid and is thought to be an intermediate in the conversion of oleic acid to pimelic acid (see Ohsugi and Inoue (1981) Agric. Biol. Chem. 45: 2355-2356, hereby incorporated by reference).
Seven spontaneous mutants that outgrew the background of PY79 on 2 g/l Azelaic acid were isolated. The resistance to azelaic acid appeared to be a stable trait in all but one case (see below). The seven mutants were provisionally named PA1-PA7 (PY79 Azelaic acid resistant). PA1 through PA7 were grown in test tubes in VY medium, and biotin production was assayed using E. coli indicator strains (Table 15). The mutants fell into two classes, those that yielded more biotin than PY79 (PA5, PA6) and those that were similar to PY79 (PA1, 2, 3, and 7). PA4 appeared to be either unstable or not a true mutant and was dropped from further study. Applicants also noticed that the mutants fell into two classes with respect to colony size on minimal agar with 2 g/l azelaic acid, and that these two classes corresponded to the two classes of biotin producers (Table 11). The mutants with the most biotin in the supernatant (PA5 and PA6) gave small colonies, while the biotin non-secreters, PA1, 2, 3, and 7, gave large colonies. PA1 and PA3 secreted a compound that cross-fed PY79 (i.e., reversed the azelaic acid inhibition of PY79) on minimal plates containing 2 g/l azelaic acid.

[3] = test system: PY79 bioI::cat; assay: Growth of bioI::cat mutants on biotin-free medium with supplements; format: cell-based, B. subtilis; details: biotin 33 μg/ml
[4] = test system: bioW-lacZ translational fusion; assay: bioW-lacZ translational fusion integrated at the bio locus, β-galactosidase liquid ONPG assay; format: cell-based, B. subtilis
Description: A translational lacZ fusion was constructed to confirm the activity and regulation of the putative promoter and regulatory region, and to assess the relative level of expression of the B. subtilis biotin operon in a variety of contexts. This was accomplished by inserting a 3.1 kb BamHI-BglII fragment containing a promoter-less lacZ coding region into the BamHI site of pBIO350, to give pBIO397 and pBIO398.
To test the bioW-lacZ fusion for biotin-regulated expression in B. subtilis, Bio^+ partial diploids were constructed. The cat cassette was cloned into pBIO397 using the single SmaI site located within the polylinker region downstream from the lacZ gene. One recombinant plasmid, pBIO397cat, with the cat gene oriented in the same direction as the translational fusion, was used to generate Bio^+ partial diploids. Competent cells of the prototrophic B. subtilis strain PY79 were transformed with pBIO397cat plasmid DNA selecting for Cm^r. Transformants should only arise by recombination into the chromosome. This leaves an intact copy of the bio operon, allowing activity of the lac fusion to be assessed in the absence of added biotin.
The promoter of the BamHI to PstI fragment cloned in pBIO350 is regulated by biotin. Two Cm^r Bio^+ partial diploids containing the bioW-lacZ fusion were tested for β-galactosidase activity in biotin-free medium in the presence or absence of biotin (100 μg/liter). In liquid ONPG assays, both strains were regulated specifically by biotin. The level of β-galactosidase was repressed in the presence of biotin and induced in its absence to 24 to 85-fold higher specific activity (Table 3). This strain with the bioW::lacZ fusion integrated at the bio operon has also been used to isolate new biotin analog-resistant mutants (see below) on X-gal indicator plates.

[5] = test system: B. subtilis birA/azl^r strains; assay: Screen of parents and Trp+ transductants for homobiotin resistance; format: cell-based; set-up: key to Homobiotin resistant/sensitive: R: resistant; S: sensitive
Description: The birA mutation from either HB3 or α-DB16 was introduced into either PA3 or PA6 by a two step transduction process. First, PA3 and PA6 were made Trp^− by transduction with trpE::Tn917lac (Perkins and Youngman, (Proc. Nat'l Acad. Sci USA 83:140-144 (1986)) selecting for erythromycin resistance. The birA mutations were transduced from HB3 or α-DB16, selecting for Trp^+. Parents and Trp^+ transductants were screened for homobiotin resistance and azelaic acid resistance. PA6 was homobiotin sensitive, so double mutants could be identified among Trp^+ transductants by screening for homobiotin resistant colonies. Only about 60% of Trp^+ transductants were also homobiotin resistant (this may be due to Tn917 distortion of the map distance between birA and trpE normally 90% linkage by transduction). PA3 was resistant to homobiotin, so direct identification of double mutants was not possible. However, 60% of the transductants were double mutants as judged by increased biotin secretion, see below.

[6] = test system: B. subtilis PY79; assay: Crystal of biotin analog on plates, growth inhibition; format: cell-based; details: for Zones of killing around crystal: PY79, EMS1, EMS2 on TBAB, BIOS or MIN plates, after 24 h; for Growth inhibition around crystal, zones of clearing: EMS-mutagenized PY79, TBAB plates, overnight at 37° C.
Description: Biotin analogs were used to select for strains that were deregulated for biotin production. Among the mutations sought were those in a potential homolog of the E. coli birA gene. However, it is expected that selection for resistance to biotin analogs can also yield strains with mutations in the operator site(s) of birA, or in genes encoding functions responsible for the transport of the analogs into the cell. Analog-resistant mutants can also contain a gene or genes that encode enzymes resistant to inhibitors including, but not limited to, feedback inhibitors. Several biotin analogs (homobiotin, α-dehydrobiotin, and 5(2-thienyl)pentanoic acid) were obtained from Nippon Roche KK (Kanagsua, Japan). Mutagenized cells of B. subtilis were plated on TBAB (Difco Tryptose Blood Agar Base, cat. no. 0232-01-9) plates containing a crystal of each biotin analog.
An additional 27 mutants were selected subsequently in similar plate screenings for their resistance to the analogs homobiotin (HB) and α-dehydrobiotin (α-DB). For this latter selection, B. subtilis PY79 cultures were subjected to mutagenesis with EMS in two independent experiments. […] Overnight cultures of PY79, EMS1, and EMS2 grown in rich medium were plated on TBAB (rich), BIOS (biotin free) or MIN (glucose-minimal) plates and a crystal of homobiotin or α-dehydrobiotin was placed on each of the plates. […] Individual colonies were picked from homobiotin plates or α-dehydrobiotin plates and restreaked on BIOS plates containing α-dehydrobiotin or homobiotin.

## O=C(O)CCCC[C@@H]1SC[C@@H]2NC(=O)N[C@@H]21 [Biotin]
[1]; BI421 (SPβ::bioW-lacZ)/#1 (birA)
  Fold Increase of β-galactosidase activity, −Biotin over +Biotin (100 μg/l): 1.5 Fold
[1]; BI421 (SPβ::bioW-lacZ)/#1 (birA), OD600 1.00-0.936
  β-galactosidase activity +Biotin (100 μg/l): 0.67 Miller Units
[1]; BI421 (SPβ::bioW-lacZ)/#3 (birA)
  Fold Increase of β-galactosidase activity, −Biotin over +Biotin (100 μg/l): 0.9 Fold
[1]; BI421 (SPβ::bioW-lacZ)/#3 (birA), OD600 1.07-0.92
  β-galactosidase activity +Biotin (100 μg/l): 0.96 Miller Units
[1]; HB3 (SPβ::bioW-lacZ)/#1 (birA)
  Fold Increase of β-galactosidase activity, −Biotin over +Biotin (100 μg/l): 1.3 Fold
[1]; HB3 (SPβ::bioW-lacZ)/#1 (birA), OD600 1.068-1.076
  β-galactosidase activity +Biotin (100 μg/l): 0.24 Miller Units
[1]; HB3 (SPβ::bioW-lacZ)/#3 (birA)
  Fold Increase of β-galactosidase activity, −Biotin over +Biotin (100 μg/l): 0.8 Fold
[1]; HB3 (SPβ::bioW-lacZ)/#3 (birA), OD600 1.213-1.320
  β-galactosidase activity +Biotin (100 μg/l): 0.18 Miller Units
[1]; PY79 (SPβ::bioW-lacZ)
  β-galactosidase repressed in the presence of biotin, induced in the absence of biotin: 9-15 fold
[1]; PY79 (SPβ::bioW-lacZ)/#1
  Fold Increase of β-galactosidase activity, −Biotin over +Biotin (100 μg/l): 15 Fold
[1]; PY79 (SPβ::bioW-lacZ)/#1, OD600 1.04-1.08
  β-galactosidase activity +Biotin (100 μg/l): 0.04 Miller Units
[1]; PY79 (SPβ::bioW-lacZ)/#3
  Fold Increase of β-galactosidase activity, −Biotin over +Biotin (100 μg/l): 9 Fold
[1]; PY79 (SPβ::bioW-lacZ)/#3, OD600 0.988-0.960
  β-galactosidase activity +Biotin (100 μg/l): 0.06 Miller Units
[1]; α-D89 (SPβ::bioW-lacZ)/#1
  Fold Increase of β-galactosidase activity, −Biotin over +Biotin (100 μg/l): 9.2 Fold
[1]; α-D89 (SPβ::bioW-lacZ)/#1, OD600 0.892-0.528, one measurement
  β-galactosidase activity +Biotin (100 μg/l): 0.18 Miller Units
[1]; α-D89 (SPβ::bioW-lacZ)/#3
  Fold Increase of β-galactosidase activity, −Biotin over +Biotin (100 μg/l): 12.3 Fold
[1]; α-D89 (SPβ::bioW-lacZ)/#3, OD600 1.344-1.200
  β-galactosidase activity +Biotin (100 μg/l): 0.11 Miller Units
[2]
  Reversal of azelaic acid growth inhibition of wild-type B. subtilis: reversed
[3]
  Growth of bioI::cat insertion colonies: grew to wild-type levels
[4]; PY79(bioW-lacZ)12A, Late Log
  Fold Increase of β-galactosidase activity, −Biotin over +Biotin (100 μg/l): 24 Fold
[4]; PY79(bioW-lacZ)12A, Late Log (OD600 0.7-0.8)
  β-galactosidase activity +Biotin (100 μg/l): 0.47 Miller Units
[4]; PY79(bioW-lacZ)12A, Late Stationary
  Fold Increase of β-galactosidase activity, −Biotin over +Biotin (100 μg/l): 53 Fold
[4]; PY79(bioW-lacZ)12A, Late Stationary (OD600 1.4-1.6)
  β-galactosidase activity +Biotin (100 μg/l): 0.13 Miller Units
[4]; PY79(bioW-lacZ)12A, Stationary
  Fold Increase of β-galactosidase activity, −Biotin over +Biotin (100 μg/l): 65 Fold
[4]; PY79(bioW-lacZ)12A, Stationary (OD600 1.1-1.4)
  β-galactosidase activity +Biotin (100 μg/l): 0.17 Miller Units
[4]; PY79(bioW-lacZ)14A, Late Log
  Fold Increase of β-galactosidase activity, −Biotin over +Biotin (100 μg/l): 33 Fold
[4]; PY79(bioW-lacZ)14A, Late Log (OD600 0.7--0.8)
  β-galactosidase activity +Biotin (100 μg/l): 0.64 Miller Units
[4]; PY79(bioW-lacZ)14A, Late Stationary
  Fold Increase of β-galactosidase activity, −Biotin over +Biotin (100 μg/l): 85 Fold
[4]; PY79(bioW-lacZ)14A, Late Stationary (OD600 1.213-1.320)
  β-galactosidase activity +Biotin (100 μg/l): 0.10 Miller Units
[4]; PY79(bioW-lacZ)14A, Stationary
  Fold Increase of β-galactosidase activity, −Biotin over +Biotin (100 μg/l): 82 Fold
[4]; PY79(bioW-lacZ)14A, Stationary (OD600 1.1-1.4)
  β-galactosidase activity +Biotin (100 μg/l): 0.15 Miller Units

## O=C(O)CCCCC[C@@H]1SC[C@@H]2NC(=O)N[C@@H]21 [Homobiotin, homobiotin]
[5]; parent PA3, birA donor HB3, isolate 1
  Homobiotin resistant/sensitive: R
[5]; parent PA3, birA donor HB3, isolate 2
  Homobiotin resistant/sensitive: R
[5]; parent PA3, birA donor α-DB16, isolate 1
  Homobiotin resistant/sensitive: R
[5]; parent PA6, birA donor HB3, isolate 2
  Homobiotin resistant/sensitive: R
[5]; parent PA6, birA donor HB3, isolate 6
  Homobiotin resistant/sensitive: R
[5]; parent PA6, birA donor α-DB16, isolate 8
  Homobiotin resistant/sensitive: R
[5]; parent PA6, birA donor α-DB16, isolate 14
  Homobiotin resistant/sensitive: R
[5]; strain HB3
  Homobiotin resistant/sensitive: R
[5]; strain PA3
  Homobiotin resistance of PA3: resistant
  Homobiotin resistant/sensitive: R
[5]; strain PA6
  Homobiotin resistant/sensitive: S
  Homobiotin sensitivity of PA6: sensitive
[5]; strain PY79
  Homobiotin resistant/sensitive: S
[5]; strain α-DB16
  Homobiotin resistant/sensitive: R
[6]
  Zones of killing around crystal: zones of killing were observed

## O=C(O)CCCCc1cccs1 [5(2-thienyl) pentanoic acid, 5(2-thienyl)pentanoic acid]
[6]
  Growth inhibition around crystal, zones of clearing: inhibited the growth

## O=C(O)/C=C/CCC1SCC2NC(=O)NC21 (stereo not drawn) [α-dehydrobiotin]
[6]
  Growth inhibition around crystal, zones of clearing: inhibited the growth
  Zones of killing around crystal: zones of killing were observed
